# Measured values taken from a melting point compilation (Tetko et al.; mined from patent text by program, amines drawn as free bases though some values may be those of a salt).
row,Structure (SMILES),melting point [°C]
1,Cc1cccc(-c2nc(NCc3ccc(Cl)cc3)c3ccccc3n2)n1,210 to 212
2,CCOP(=O)(CNc1ccc2cc([N+](=O)[O-])cc(-c3cccc4ccccc34)c2n1)OCC,187 to 188
3,Cc1cccc(C(NCC(=O)Nc2c(C(C)C)cccc2C(C)C)c2ccccc2)c1 (stereo unspecified),119 to 120
4,COc1cc2c(cc1OC)C1(O)c3ccccc3CCN1C2=O (stereo unspecified),220
5,N#CC(=CNC1CC1)C(=O)c1ccc(Cl)cc1Cl,93 to 94
6,COc1cc(OC)nc(O[C@@H]2CCCC[C@H]2C(=O)NS(=O)(=O)c2ccccc2)n1 (relative stereo),175
7,C(=Nc1cccc2ccccc12)=Nc1cccc2ccccc12,91
8,Cc1ccc2c(c1)CC(=O)N2c1c(F)cccc1Cl,137 to 140
9,BrCC1(c2ccc3ccccc3c2)OCCO1,64
10,COCCOC(=O)NC(=O)CCl,97 to 99
11,CCC(=S)NC[C@H]1CN(c2ccc(N3CCN(C(=O)COc4ccc(CN5CCOCC5)cc4)CC3)c(F)c2)C(=O)O1,159 to 160
12,O=C1CN(Cc2ccc(CCn3cnc4cc(-c5ccc(Cl)cc5)sc4c3=O)cc2)CCN1,232 to 234
13,Brc1ccc(-c2cn([C@H]3CN4CCC3CC4)nn2)o1,144
14,N=C(N)Nc1nnc(-c2ccc([N+](=O)[O-])cc2)s1,295 to 297
15,O=C(NCc1ccccc1)c1ccc(OC2CCCC2)c2oc3ccccc3c12,172 to 175
16,Cc1oc2c(C)c(Cc3ccccc3)c(C3CC(=O)NC(=O)C3)cc2c1C,138
17,Fc1ccc(-c2cc(Cl)c3cc(Cl)ccc3n2)cc1,150 to 156
18,CCOC(=O)c1ccc2c(c1)S(=O)c1cc([N+](=O)[O-])ccc1-2 (stereo unspecified),245 to 250
19,CCOC(=O)c1nc(-c2ccc(F)cc2)c(-c2ccc(=O)n(C(C)C)n2)s1,193 to 194
20,CC1(C)CNC(=Nc2ccccc2)S1,153 to 155
21,Cn1cccc1CCNC(=O)Cn1c(-c2ccc(Cl)cc2)nc2cccnc21,171 to 172
22,CC1(C)CCC(C)(C)c2cc(C(=O)COc3ccc(C(=O)OCc4ccccc4)c(O)c3)ccc21,103 to 104
23,CC(=O)NCC1CN(c2ncccc2Cl)C1,109 to 111

row,Structure (SMILES),melting point [°C]
1,OC1(c2ccc(C(F)(F)F)cc2)CCN(CCCc2noc3cc(F)ccc23)CC1,150 to 152
2,O=C(CBr)c1ccc(OCc2ccccc2)c([N+](=O)[O-])c1,136
3,NNC(=O)c1ncccn1,173 to 175
4,CC(O)c1cc2c3ccccc3[nH]c(=O)n2n1 (stereo unspecified),242 to 245
5,CC(=O)OC/C=C/c1ccc(-c2ccccc2C)cc1,54 to 56
6,COCc1nc(-c2ccc(-c3cnc4[nH]c(=O)n(CC5CCOCC5)c4n3)cc2)n[nH]1,273 to 276
7,CCCNC(=O)c1nc2n(c1C)CCc1ccccc1C2OC1CCN(C)CC1 (stereo unspecified),60
8,COC(=O)c1cc(Cl)c(C)c(N)c1Cl,53 to 55
9,CC(C)(C)c1ccc(Cn2cc(C(=O)C(=O)O)c3ccc(-c4ccc(OC(F)(F)F)cc4)cc32)cc1,183 to 186
10,Cc1cc(C)c2c(c1C)OC(C)(C)C2c1ccccc1 (stereo unspecified),86 to 87
11,CC(=O)c1ccc(N2CCN(c3ccncc3)CC2)cc1,176 to 177
12,CCOC(=O)c1ccc(-c2csc(-c3ccccc3)n2)cc1,72 to 73
13,COc1cc(CCCC2OC(=O)NC2=O)ccc1O (stereo unspecified),147 to 148
14,CN1CCC(NC(=O)c2cc(Cl)cc3oc(-c4ccccc4)nc23)CC1,170 to 172
15,COC(=O)C1=C(O)c2c(c3ccccc3n2C)S(=O)(=O)N1C,189 to 190
16,O=S(=O)(Oc1ccc2ccc(OS(=O)(=O)C(F)(F)F)cc2c1)C(F)(F)F,60 to 62
17,COc1cccc(CC(=O)O)c1OCCCc1cn(-c2ccc(C)cn2)nc1C(C)C,132 to 133
18,NC(=O)c1nc(-c2ccc3nc[nH]c3c2)nc2c1[nH]c(=O)n2-c1ccccc1F,278
19,O[C@H]1CSC(c2ccccc2)=N[C@@H]1c1ccccc1 (racemic),142
20,Cc1ccccc1S(=O)(=O)NC(=O)c1ccc2c(ccn2Cc2cccc(NC(=O)OC3CCCC3)c2)c1,188 to 190
21,O[C@@H]1CCN(c2ccc3nnn(Cc4ccc5ncccc5c4)c3n2)C1,167 to 169
22,COc1cc(C=CC(=O)c2ccc([N+](=O)[O-])cc2)cc(OC)c1,166
23,CCCCOc1ccc(S(=O)(=O)C2(C(=O)NO)CCN(CC)CC2)cc1,98

# Next, values leading:
row,melting point [°C],Structure (SMILES)
1,201 to 204,CC(C)C(=O)Oc1c(-c2ccc(-c3ccccc3)cc2)nc2ccc(F)cc2c1C(=O)O
2,188 to 191,CNC(=O)CC(O)(c1ccc(Br)cc1)c1cccnc1 (stereo unspecified)
3,105 to 107,CCCN(C1=C(O)CC(C2CCCC2)(C2CCCC2)OC1=O)c1cccc(NS(=O)(=O)c2ccccn2)c1
4,124 to 126,CCCc1nn(-c2ccc(C(F)(F)F)cn2)cc1CCCOc1cc(CC(=O)O)ccc1OC
5,226,CC(=O)OC1CSC(Oc2ccc(-c3ccc(F)nc3)nc2Cl)C(OC(C)=O)C1OC(C)=O (stereo unspecified)
6,75 to 77,Fc1ccc(Nc2ccccc2C=C(Br)Br)cc1
7,171 to 172,CC(C)n1c(=O)n(C)c(=O)c2c(S(=O)(=O)CCCO)n(C3Cc4ccccc4C3)cc21
8,252 to 253,Nc1cc(-c2c(-c3ccc(Cl)cc3)nc3cccnn23)ccn1
9,> 300,O=c1c2cc(-c3nnn[nH]3)ccc2sc2ncccc12
10,185 to 187,CC(C)c1ccc(N(Cc2ccc(N(C)C)cc2)C(=O)C2CCS(=O)(=O)c3ccccc32)cc1 (stereo unspecified)
11,220,Oc1ccc(CNc2n[nH]c3ncnc(Nc4cccc(Cl)c4)c23)cc1Cl
12,79 to 82,CC(=O)NC(C)C(=O)NCC(=O)O (racemic)
13,93 to 96,CC(=O)c1cc(-c2ccncc2)sc1Oc1ccccc1F
14,137,Cc1oc(-c2ccccc2)nc1COCc1cccc(COc2cc(Cl)ccc2C(=O)O)c1
15,171 to 172,CCOC(=O)c1ccc(N=C(Nc2ccc(C(=O)OCC)cc2)c2ccc(Cl)cc2)cc1
16,176,Cc1ccc(N2C(=O)c3nccnc3C2OC(=O)Oc2ccccc2)nc1 (stereo unspecified)
17,183 to 185,CN1C2=C(C(=O)CC(C)(C)C2)C(c2ccc(Cl)c(Oc3ccccc3)c2)C2=C1CC(C)(C)CC2=O
18,231 to 232,CC(C)(C)OC(=O)N1CCN(C(=O)N2CCC(c3[nH]nc4c3C(=O)c3c(NC(=O)NN5CCOCC5)cccc3-4)CC2)CC1
19,112 to 113,COC(=O)c1cccc(CN2C(=O)C(CCOc3ccc(CCNC(=O)OC(C)(C)C)cc3)Oc3ccccc32)c1 (stereo unspecified)
20,246,Nc1nc(Br)cn2c(Br)cnc12
21,176 to 178,COc1ccc(S(=O)(=O)Nc2cccnc2Nc2ccccc2)c(OC)c1
22,77 to 80,Cc1ccc(-c2nc(Cc3cc4cc(N(OCc5ccccc5)C(N)=O)ccc4o3)c(C)o2)cc1
23,204,COc1ccc(S(=O)(=O)C2(C(=O)O)CCN(C)CC2)cc1
24,223 to 227,COc1ccccc1N1CCN(CCn2c(=O)[nH]c3ccc(O)c(O)c3c2=O)CC1
25,94 to 95,Cc1nc2c(OCc3ccccc3)cc(Br)cc2n1COCC[Si](C)(C)C

row,melting point [°C],Structure (SMILES)
1,118 to 120,CC(C)CS(=O)(=O)c1ccc(N)c(S(=O)(=O)CC(C)C)c1
2,49 to 51,CC(C)C(=O)n1ccc(-c2ccc(Oc3ccccc3)cc2)n1
3,107 to 110,COc1cccc(NC(SC)=C(C#N)S(=O)(=O)C(C)C)c1
4,260 to 261,Cc1cc(C)c2c(=O)[nH]c(-c3cc(C)c(OCCO)c(C)c3)nc2c1
5,41 to 42,CCOC(=O)COc1ccc(C(=O)CN2CCN(c3ccncc3)CC2)cc1
6,88 to 89,COC(=O)c1ccc([N+](=O)[O-])cc1C#CC(C)(C)C
7,90 to 91,COc1ccc(Cl)c2nc(SCc3ccccc3)nn12
8,162,CCOc1nn(C(=O)NS(=O)(=O)c2c(C(=O)N(C)C)csc2C)c(=O)n1C
9,245,COc1cc2c(cc1OC)[C@@H]1CN(C)CC[C@@H]1N=C2c1ccc(NC(=O)C(C)(C)C)cc1 (relative stereo)
10,232 to 233,CC(C)(C)c1ccc(C(=O)Nc2cn3nc(NCc4cccnc4)ccc3n2)cc1
11,74 to 77,COC(=O)c1cccc(OCc2ccccc2)c1
12,214 to 215,COc1cc(OC)c2c(=O)[nH]c(-c3ccc(OCCNC(C)C)c(-c4ccc(C(=O)N(C)C)cc4)n3)nc2c1
13,161,CCOc1c(SC(F)(F)F)c(C(N)=O)nn1-c1c(Cl)cc(C(F)(F)F)cc1Cl
14,133 to 134,CCCC(CCC)C(=O)NC1CCc2ccccc21 (stereo unspecified)
15,168,CCC(=O)OC1(C(=O)CCl)CCC2C3CCC4CC(=O)CCC4(C)C3(F)C(=O)CC21C (stereo unspecified)
16,86 to 90,COc1cc(-c2cnn3c(-c4cccc(NC(=O)CC(C)C)c4)ccnc23)cc(OC)c1OC
17,90 to 91,CCOC(=O)/C=C/c1ccc(OCCC2(C)OCCO2)cc1Oc1ncc(C(F)(F)F)cc1Cl
18,331 to 332,O=C(O)c1ccc(N2C(=O)c3ccc([N+](=O)[O-])cc3C2=O)cc1
19,68 to 69,Cc1nnc(CNc2c(C)cccc2C)s1
20,151 to 152,COC(=O)Cc1ccc(OCC2CN(c3ccc(C(=N)N)cc3)C(=O)O2)cc1 (stereo unspecified)
21,56,CCCCCCCCCCCC(=O)Oc1c(C(=O)c2ccc(Cl)cc2Cl)c(C)nn1C
22,208 to 210,CC(=O)Nc1nc(-c2ccc(CCC(=O)O)cc2)c(Cc2ccc(S(C)(=O)=O)cc2)s1
23,124 to 126,CCOC(=O)C(=O)c1cccc(NC=O)n1
24,188,Cc1ccn2c(-c3ccnc(-c4ccc(CN5CCOCC5)cc4)c3)c(-c3cccc(C)n3)nc2c1
25,161 to 162,Cc1noc(C)c1S(=O)(=O)Nc1cc(-c2ncc(C(F)(F)F)cc2Cl)ccc1Cl
